This note sets out measurements from patent US20110136762A1, “FUNGICIDAL PYRIDAZINES” (E.I. Du Pont de Nemours and Company, priority 2008, published 2011).

Each structure is given as a SMILES string. Marks after values point to notes of the source that are not given here.

Common to all, as to assay type: in vivo
Test [1] concerns Botrytis cinerea. Briefly: Test F: tomato Botrytis, preventive spray on tomato seedlings, visual disease rating. The following applies: 100 = 100% disease control, 0 = no disease control relative to controls; for pest or weed control at 200 ppm / pest or weed control at 40 ppm: Botrytis cinerea; for pest or weed control at 40 ppm / Test F rating (disease control, tomato Botrytis): 40 ppm (marked *). In a few lines:
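Preventive test: tomato seedlings sprayed to run-off at 200 ppm (500 g/ha) or, where marked *, 40 ppm, then inoculated next day with B. cinerea spores. Kept 48 h at saturated humidity and 20° C, then 3 days at 24° C. Disease assessed visually.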

For test [2], the system named is Septoria tritici. Description: Test C: wheat leaf blotch, preventive spray on wheat seedlings, visual disease rating. Conditions: 100 = 100% disease control, 0 = no disease control relative to controls; for pest or weed control at 200 ppm / pest or weed control at 40 ppm: Zymoseptoria tritici, 504 h; for pest or weed control at 40 ppm / Test C rating (disease control, wheat leaf blotch): 40 ppm (marked *). In a few lines:
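Wheat seedlings were sprayed to run-off with test suspension at 200 ppm (500 g/ha), or at 40 ppm where marked *. They were inoculated with spores the next day and held in saturated atmosphere at 20° C for 48 h. After a further 19 days in a growth chamber at 20° C, disease was rated visually.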

Test [3] concerns Erysiphe graminis. Briefly: Test A: wheat powdery mildew, preventive spray on wheat seedlings, visual disease rating. The following applies: 100 = 100% disease control, 0 = no disease control relative to controls; for pest or weed control at 200 ppm / pest or weed control at 40 ppm: Blumeria graminis, 192 h; for pest or weed control at 40 ppm / Test A rating (disease control, wheat powdery mildew): 40 ppm (marked *). The method, boiled down:
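Seedlings were sprayed to run-off with test suspension at 200 ppm (500 g/ha), or 40 ppm where marked. They were dust-inoculated with spores the next day and kept 8 days at 20 °C. Disease was then rated visually.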

The subject of test [4] is Puccinia recondita f. sp. tritici. Description: Test B: wheat leaf rust, preventive spray on wheat seedlings, visual disease rating. The following applies: 100 = 100% disease control, 0 = no disease control relative to controls; for pest or weed control at 200 ppm / pest or weed control at 40 ppm: 192 h; for pest or weed control at 40 ppm / Test B rating (disease control, wheat leaf rust): 40 ppm (marked *). In a few lines: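 Seedlings were sprayed to run-off at 200 ppm (500 g/ha), or at 40 ppm where marked *, then inoculated with spores the next day. Plants were held at saturated humidity at 20° C for 24 h and then in a growth chamber at 20° C for 7 days before visual disease rating.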

Test [5] deals with Alternaria solani. Briefly: Test E: tomato early blight, preventive spray on tomato seedlings, visual disease rating. The following applies: 100 = 100% disease control, 0 = no disease control relative to controls; for pest or weed control at 200 ppm / pest or weed control at 40 ppm: Alternaria solani; for pest or weed control at 40 ppm / Test E rating (disease control, tomato early blight): 40 ppm (marked *). In a few lines: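 Tomato seedlings sprayed to run-off with test suspension at 200 ppm (equivalent to 500 g/ha), or 40 ppm where marked "*", as a preventive treatment before A. solani challenge. Disease then rated visually.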

Test [6] has as its system Septoria nodorum. Description: Test D: wheat glume blotch, preventive spray on wheat seedlings, visual disease rating. Conditions: 100 = 100% disease control, 0 = no disease control relative to controls; for pest or weed control at 200 ppm / pest or weed control at 40 ppm: Parastagonospora nodorum; for pest or weed control at 40 ppm / Test D rating (disease control, wheat glume blotch): 40 ppm (marked *). In a few lines:
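Wheat seedlings sprayed to run-off with compound at 200 ppm (500 g/ha), or 40 ppm where marked, then inoculated with Septoria nodorum spores the next day. Held 48 h in saturated atmosphere at 20° C, then 7 days in a growth chamber at 20° C before visual disease rating.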

Broadly, the pest or weed control is the degree to which the test organism was suppressed or injured, in per cent. Read a low pest or weed control as a weak effect. `COc1cc(OC)cc(-c2c(-c3ccccc3F)nnc(C)c2-c2ccc(F)cc2)c1` [Compound 2, 4-(3,5-dimethoxyphenyl)-3-(2-fluorophenyl)-5-(4-fluorophenyl)-6-methylpyridazine]: the pest or weed control at 200 ppm is 99% in test [1]; 100% in test [2]; 97% in test [3]; 99% in test [4]; 99% in test [5]; 0% in test [6].
On to `COc1cc(OC)cc(-c2c(-c3ccccc3)nnc(CCl)c2-c2ccc(F)cc2)c1` [Compound 14, 3-(chloromethyl)-5-(3,5-dimethoxyphenyl)-4-(4-fluorophenyl)-6-phenylpyridazine], for which the pest or weed control at 200 ppm is 99% in test [1]; 77% in test [2]; 11% in test [3]; 91% in test [4]; 0% in test [5]; 0% in test [6].
As to `COc1cc(OC)cc(-c2c(-c3ccccc3)nnc(C)c2-c2c(F)cc(OC)cc2F)c1` [Compound 37, 5-(2,6-difluoro-4-methoxyphenyl)-4-(3,5-dimethoxyphenyl)-6-methyl-3-phenylpyridazine], the pest or weed control at 40 ppm in test [1] was determined as 99%; in test [2], 98%; in test [3], 69%; in test [4] it was 100%; in test [5], 99%; in test [6], 99%.
Take `COc1cc(OC)cc(-c2c(-c3cc(F)c(F)cc3F)cnnc2-c2ccccc2F)c1` [Compound 27, 4-(3,5-dimethoxyphenyl)-3-(2-fluorophenyl)-5-(2,4,5-trifluorophenyl)pyridazine]: the pest or weed control at 200 ppm in test [1] was 100%; in test [2] it was 99%; in test [3], 89%; in test [4] it was 100%; in test [5], 99%; in test [6], 84%.
For the compound `COc1cncc(-c2c(-c3ccccc3F)nnc(C)c2-c2c(F)cc(F)cc2F)c1` [Compound 46], the “Test F rating (disease control, tomato Botrytis)” value in test [1] is 100* %. For the same compound, in test [2], the “Test C rating (disease control, wheat leaf blotch)” value is recorded as 99* %. Also, in test [3], the “Test A rating (disease control, wheat powdery mildew)” value was 97* %. In test [4], the “Test B rating (disease control, wheat leaf rust)” value was 100* %. Also, the “Test E rating (disease control, tomato early blight)” value in test [5] is 100* %. The “Test D rating (disease control, wheat glume blotch)” value in test [6] is 0* %.
`COc1cc(OC)c(Cl)c(-c2c(-c3ccccc3)nnc(C)c2-c2c(F)cc(F)cc2F)c1` [Compound 36, 4-(2-chloro-3,5-dimethoxyphenyl)-6-methyl-3-phenyl-5-(2,4,6-trifluorophenyl)pyridazine]: the pest or weed control at 40 ppm is 99% in test [1]; 99% in test [2]; 98% in test [3]; 99% in test [4]; 99% in test [5]; 100% in test [6].
Regarding `COc1cc(OC)cc(-c2c(-c3ccccn3)nnc(C)c2-c2ccccc2)c1` [Compound 13, 4-(3,5-dimethoxyphenyl)-6-methyl-5-phenyl-3-(2-pyridinyl)pyridazine], the pest or weed control at 200 ppm in test [1] stood at 0%; in test [2] it was 0%; in test [3] it was 0%; in test [4] it was 41%; in test [5], 0%; in test [6], 0%.
As to `COc1cc(OC)c(Br)c(-c2c(-c3ccccc3F)nnc(C)c2-c2c(F)cc(F)cc2F)c1` [Compound 32], the “Test F rating (disease control, tomato Botrytis)” value in test [1] is reported as 100* %. In addition, the “Test C rating (disease control, wheat leaf blotch)” value in test [2] is 98* %. In addition, the “Test A rating (disease control, wheat powdery mildew)” value in test [3] was 90* %. In test [4], the “Test B rating (disease control, wheat leaf rust)” value is 100* %. For the same compound, the “Test E rating (disease control, tomato early blight)” value in test [5] is 99* %. In addition, the “Test D rating (disease control, wheat glume blotch)” value in test [6] is reported as 99* %.
`COc1cc(OC)cc(-c2c(-c3ccccc3F)nnc(Cl)c2-c2ccc(F)cc2F)c1` [Compound 18, 3-chloro-4-(2,4-difluorophenyl)-5-(3,5-dimethoxyphenyl)-6-(2-fluorophenyl)pyridazine]: the pest or weed control at 200 ppm in test [1] came to 95%; in test [2], 98%; in test [3], 95%; in test [4] it was 100%; in test [5], 100%; in test [6] it was 100%.
